The source of these data is ChEMBL document CHEMBL6087461, “Cell-Permeable Peptide Inhibitors of the p53-hDM2 Interaction via Foldamer Helix Mimicry and Bis-Thioether Stapling” (J Med Chem, 2025).

The source made the active and inactive calls. No cut-off for these calls is given here. Starred links: 1 amine or outer side, 2 acyl side, 3 side chain; linkers in the order of their positions; H or OH if unused. Positions of bridges follow the written chain, without caps; N, C: chain ends. Residues, ends and D or L forms follow the SMILES beside them. X1 = CC(C)[C@@H](CNC(N)=O)NC(=O)NC[C@H](C)NC(=O)NC[C@H](CSCCCCCC[*:1])N[*:2]

For assay [1], the target named is Tumour suppressor protein p53/Mdm4 (Homo sapiens, UniProt O15151). Briefly: PROTAC activity at human DMX/p53 extracted from Escherichia coli interaction by measuring inhibition of interaction by time-resolved fluorescence energy transfer (TRFRET) detection method. Type of assay: protein assay.
Chain of Tumour suppressor protein p53/Mdm4 (P04637 whole entry): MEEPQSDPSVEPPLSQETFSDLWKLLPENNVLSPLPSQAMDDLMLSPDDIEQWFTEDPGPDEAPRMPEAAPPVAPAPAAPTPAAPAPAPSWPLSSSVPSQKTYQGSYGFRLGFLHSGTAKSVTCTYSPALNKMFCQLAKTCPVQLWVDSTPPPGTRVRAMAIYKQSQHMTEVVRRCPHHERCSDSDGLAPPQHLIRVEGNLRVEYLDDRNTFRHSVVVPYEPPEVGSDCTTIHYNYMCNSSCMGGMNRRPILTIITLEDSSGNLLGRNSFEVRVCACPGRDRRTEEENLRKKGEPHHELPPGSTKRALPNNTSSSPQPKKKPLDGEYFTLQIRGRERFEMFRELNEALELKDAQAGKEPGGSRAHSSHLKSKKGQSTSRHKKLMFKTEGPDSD
Chain of Tumour suppressor protein p53/Mdm4 (O15151 whole entry): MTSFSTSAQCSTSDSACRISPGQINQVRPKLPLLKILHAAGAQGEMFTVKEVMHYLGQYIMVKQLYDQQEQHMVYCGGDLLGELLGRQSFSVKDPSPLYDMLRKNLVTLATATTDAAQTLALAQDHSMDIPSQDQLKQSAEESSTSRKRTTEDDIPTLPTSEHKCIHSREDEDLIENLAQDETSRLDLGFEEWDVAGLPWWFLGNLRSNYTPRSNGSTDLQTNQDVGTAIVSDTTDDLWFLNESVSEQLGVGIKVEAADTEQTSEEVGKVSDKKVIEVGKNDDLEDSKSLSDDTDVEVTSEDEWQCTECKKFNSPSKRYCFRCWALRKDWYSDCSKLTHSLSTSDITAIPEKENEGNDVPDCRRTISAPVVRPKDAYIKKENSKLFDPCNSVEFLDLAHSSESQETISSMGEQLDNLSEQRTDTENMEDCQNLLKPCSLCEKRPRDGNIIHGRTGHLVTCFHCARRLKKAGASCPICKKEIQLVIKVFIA
Assay [2] in a line: PROTAC activity at human DM2/p53 extracted from Escherichia coli interaction by measuring inhibition of interaction by time-resolved fluorescence energy transfer (TRFRET) detection method.
In assay [3] the test system is HCT-116. Briefly: Effect on increase in […] RNA level in human HCT-116 cells at 10 uM measured after 6 hrs by RT-qPCR analysis. Type of assay: functional, cell-based.
Assay [4] concerns HCT-116. Briefly: Effect on increase in p21 RNA level in human HCT-116 cells at 10 uM measured after 6 hrs by RT-qPCR analysis. Type of assay: functional, cell-based. Background: Real-time PCR tracks product formation cycle by cycle.
In assay [5] the test system is HCT-116. Briefly: Effect on increase in wild type p53 level in human HCT-116 cells at 10 uM measured after 6 hrs by Western blot analysis. It counts as functional, cell-based. A general note: Immunoblotting shows a protein as a band on a membrane.
The subject of assay [6] is SW480. Briefly: Cytotoxicity against human SW480 cells expressing p53 mutant and overexpressing human DM2 assessed as cell viability measured after 72 hrs incubation by MTS cell viability assay. It counts as functional, cell-based. (Tetrazolium assays rely on reduction of a dye to a coloured formazan, in cell work by metabolically active cells.)
Assay [7] concerns SW480. As to the kind of experiment: Cytotoxicity against human SW480 cells expressing lower level of human DM2 assessed as cell viability measured after 72 hrs incubation by MTS cell viability assay. Type of assay: functional, cell-based.
Assay [8] deals with HCT-116. Briefly: Cytotoxicity against human HCT116 cells expressing wild type p53 and overexpressing human DM2 assessed as cell viability measured after 72 hrs incubation by MTS cell viability assay. Type of assay: functional, cell-based. The following applies: HCT-116, 72 h.
Assay [9] deals with MCF7. As to the kind of experiment: Cytotoxicity against human MCF7 cells expressing wild type p53 and overexpressing human DMX assessed as cell viability measured after 72 hrs incubation by MTS cell viability assay. Type of assay: functional, cell-based. The note with it: MCF7, 72 h.

As for `CC(C)[C@@H](CNC(N)=O)NC(=O)NC[C@H](C)NC(=O)NC[C@@H]1CSCCCCCCSC[C@H](NC(=O)[C@H](Cc2ccccc2)NC(=O)[C@H](CO)NC(=O)[C@H](CCCCN)NC(=O)[C@H](CCCNC(=N)N)NC(=O)[C@H](CCCNC(=N)N)NC(=O)[C@@H](N)CCCNC(=N)N)C(=O)N[C@@H](CCC(=O)O)C(=O)N[C@@H](Cc2ccc(O)cc2)C(=O)N[C@@H](Cc2c[nH]c3ccccc23)C(=O)N1` (H-RRRKSFCEYW; linker 7-C via X1), the IC50 (as a rule, the concentration that gives 50% inhibition) came out at 22 µM in [1], 0.0046 µM in [2], 3.86 µM in assay [8] and 3.98 µM in assay [9]. For the same molecule, the outcome in [3], in assay [4] and in assay [5] was inactive. For the same molecule, the result in assay [6] and in [7] was Active.
